In patent US11091511B2, “Panaxdiol-type ginsenoside derivative, preparation method therefor and use thereof” (ARMY MEDICAL UNIVERSITY, priority 2016, dated 2021):
Marks after values point to notes of the source that are not given here.

Key:
RAW264.7 cells = assay: RAW264.7 cell survival rate by CCK8 method; format: cell-based, mouse; conditions: compound 10 prnol/L, 0.1% DMSO, CCK8, x ± s, n = 3, normal saline control = 1
Protocol: In order to further verify the toxicities of the compounds prepared in Examples 1-30 of the present invention, the mouse macrophage cell line RAW264.7 was cultured, and the compounds prepared in Examples 1-30 of the invention were prepared to a concentration of […] using culture medium, wherein the solvent was normal saline, the co-solvent was dimethyl sulfoxide (DMSO, the final concentratoin was 0.1%), and a 0.1% DMSO saline control group was provided. The cell survival rate was determined by CCK8 method. The data were expressed as x±s. SPSS 10.0 line single-factor analysis of variance was performed among groups. The difference was significant when p<0.05.

apoE−/− mice [1] = assay: Atherosclerotic plaque area to total aortic area in apoE-/- mice on high-fat diet (Sudan IV staining); format: in vivo, mouse; conditions: intragastric 15 weeks, compounds 30 mg/(kg·d), simvastatin 10 mg/(kg·d), x ± s, n = 5, saline control 14.67 ± 3.58
From the text: The effects of the compounds prepared in Examples 1-30 of the present invention on the percentages of areas of atherosclerotic plaque formation to the area of the entire artery in apoE−/− mice with a high-fat diet and the levels of low-density lipoprotein cholesterol and the levels of high-density lipoprotein, the specific steps are as follows: 1. animals: 160 ten-week-old, healthy and clean-grade apoE−/− mice (purchased from Peking University Experimental Animal Center), males, weight: 22-25 g, were housed in separate cages in a sterile laminar feeding room and fed freely. The mice were fed by a high-fat diet (conventional feed+0.15% cholesterol+21% lard) for 25 weeks, the room temperature was kept at 24° C., relative humidity: 50%, illumination time 7:30-19:30. 2. Grouping, administration method: after 10 weeks of feeding, the animals were divided into the following 32 groups (n=5) by weight in a balanced and random manner, and killed 15 weeks after administration. Normal saline control group: normal saline, intragastric administration. Positive control group: simvastatin 10 mg/(kg·d), intragastric administration. The compound groups prepared in Examples 1-30 of the present invention (30 groups in total): each was intragastric administered 30 mg/(kg·d). (1) Analysis of the area of atherosclerotic plaque and its percentage to total area: after the animals were killed, the aortas were separated, from the roots of the aortas to the terminal bifurcations of the abdominal aortas. After formalin fixation, the aortas were stained with Sudan IV, the red stained parts were the areas of atherosclerotic lesions. The percentage of the area of the lesion area to total area was calculated using Image Pro Plus 5.0 software. Data were expressed as x±s, and SPSS 10.0 line single-factor analysis of variance was performed among groups, a significant difference was indicated when p<0.05.

[2] = system: RAW264.7 cell-derived foam cells; assay: Formation of RAW264.7 cell-derived foam cells (ox-LDL, oil red O, absorbance 490 nm); format: cell-based, mouse; conditions: 48 hours, model group = 100%, x ± s, n = 3
Protocol: The effects of the compounds prepared in Examples 1-30 of the present invention on the formation of RAW264.7 cell-derived foam cells, the specific steps are as follows:
1. Cell culture and foam cell model establishment:
RAW264.7 cells were cultured in DMEM culture medium with high glucose level (GIBCO) to a cell concentration of 1×10^6, planted in a 6-well plate, and 60 mg/L of ox-LDL (oxidized modified low-density lipoprotein, Peking Union Medical College) was added, foam cells were obtained after 48 hours of incubation.
2. Grouping and index detection:
The obtained foam cells were divided into 61 groups, 3 well plates were included in one group. After the treatment by adding the drugs (100 μL/well) for 48 hours, the medium was discarded, and after oil red 0 staining, the excess amount of oil red 0 was washed away. The cells were dissolved in isopropanol and the absorbance values were measured at 490 nm. The OD value of the model group was 100%, and the OD value of each group corrected by the number of cells was compared with the model group to obtain the ratio of intracellular lipid content. The larger the value, the more intracellular lipids, the higher the degree of formation of foam cells.
Normal saline control group: normal saline
Low dose groups of the compounds prepared in Examples 1-30 of the present invention:
10 μmol/L (solvents were normal saline).
High dose groups of compounds prepared in Examples 1-30 of the present invention: 30 μmol/L (solvents were normal saline).
Data were expressed as x±s, and SPSS 10.0 line single-factor analysis of variance was performed amoung groups, a significant difference was indicated when p<0.05.

apoE−/− mice [3] = assay: Blood lipids (LDL-C, HDL-C) in apoE-/- mice on high-fat diet; format: in vivo, mouse; conditions: apoE-/- mice serum, intragastric 15 weeks, compounds 30 mg/(kg·d), simvastatin 10 mg/(kg·d), x ± s; for HDL-C: n = 5, saline control 3.74 ± 0.62; for LDL-C: n = 5, saline control 7.33 ± 1.03
From the text: The effects of the compounds prepared in Examples 1-30 of the present invention on the percentages of areas of atherosclerotic plaque formation to the area of the entire artery in apoE−/− mice with a high-fat diet and the levels of low-density lipoprotein cholesterol and the levels of high-density lipoprotein, the specific steps are as follows:
1. animals: 160 ten-week-old, healthy and clean-grade apoE−/− mice (purchased from Peking University Experimental Animal Center), males, weight: 22-25 g, were housed in separate cages in a sterile laminar feeding room and fed freely. The mice were fed by a high-fat diet (conventional feed+0.15% cholesterol+21% lard) for 25 weeks, the room temperature was kept at 24° C., relative humidity: 50%, illumination time 7:30-19:30.
2. Grouping, administration method:
after 10 weeks of feeding, the animals were divided into the following 32 groups (n=5) by weight in a balanced and random manner, and killed 15 weeks after administration.
Normal saline control group: normal saline, intragastric administration.
Positive control group: simvastatin 10 mg/(kg·d), intragastric administration.
The compound groups prepared in Examples 1-30 of the present invention (30 groups in total): each was intragastric administered 30 mg/(kg·d).
(2) Determination of the levels of total cholesterol (TC), low-density cholesterol lipoprotein (LDL-C) and high-density lipoprotein cholesterol (HDL-C): using ROCHE 7060 automatic biochemical analyzer for the determination.
Data were expressed as x±s, and SPSS 10.0 line single-factor analysis of variance was performed among groups, a significant difference was indicated when p<0.05.

TNF-α = assay: Local TNF-α level in the arteries of apoE-/- mice (Millipore liquid phase chip); format: in vivo, mouse; conditions: high-fat diet, intragastric 15 weeks, compounds 30 mg/(kg·d), simvastatin 10 mg/(kg·d), x ± s, n = 5, saline control 25.58 ± 6.44
From the text: The effects of the compounds prepared in Examples 1-30 of the present invention on the percentages of areas of atherosclerotic plaque formation to the area of the entire artery in apoE−/− mice with a high-fat diet and the levels of low-density lipoprotein cholesterol and the levels of high-density lipoprotein, the specific steps are as follows: 1. animals: 160 ten-week-old, healthy and clean-grade apoE−/− mice (purchased from Peking University Experimental Animal Center), males, weight: 22-25 g, were housed in separate cages in a sterile laminar feeding room and fed freely. The mice were fed by a high-fat diet (conventional feed+0.15% cholesterol+21% lard) for 25 weeks, the room temperature was kept at 24° C., relative humidity: 50%, illumination time 7:30-19:30. 2. Grouping, administration method: after 10 weeks of feeding, the animals were divided into the following 32 groups (n=5) by weight in a balanced and random manner, and killed 15 weeks after administration. Normal saline control group: normal saline, intragastric administration. Positive control group: simvastatin 10 mg/(kg·d), intragastric administration. The compound groups prepared in Examples 1-30 of the present invention (30 groups in total): each was intragastric administered 30 mg/(kg·d). (3) Determination of TNF-α level: Millipore liquid phase chip method was used for the determination (Mcytomag-70K-3, Mouse Cytokine/Chemokine Magnetic Bead Panel). Data were expressed as x±s, and SPSS 10.0 line single-factor analysis of variance was performed among groups, a significant difference was indicated when p<0.05.

Compound	Cell Survival Rate (RAW264.7 cells)	Plaque area/total aorta area (%) (apoE−/− mice [1])	Foam cell formation (%) ([2]; dose 10 μmol/L)	Foam cell formation (%) ([2]; dose 30 μmol/L)	HDL-C (apoE−/− mice [3])	LDL-C (apoE−/− mice [3])	TNF-α level (ng/g) (TNF-α)
CC(=O)OC1CC2[C@@]3(C)CC[C@H](OC(C)=O)C(C)(C)C3CC[C@@]2(C)[C@]2(C)CCC([C@](C)(CCC=C(C)C)OC(C)=O)[C@@H]12 (stereo partly drawn) [Compound 16]	0.88 ± 0.01	10.41 ± 2.09 ^a %	81 ± 12%	72 ± 21 ^a %	4.12 ± 0.90 ^a mmol/L	5.18 ± 1.26 ^a mmol/L	15.94 ± 4.29 ^a ng/g
CC(=O)OC1CC2[C@@]3(C)CC[C@H](OC(C)=O)C(C)(C)C3CC[C@@]2(C)[C@]2(C)CCC([C@](C)(CCC3OC3(C)C)OC(C)=O)[C@@H]12 (stereo partly drawn) [Compound 17]	0.87 ± 0.07	8.53 ± 2.57 ^a %	70 ± 15 ^a %	55 ± 21 ^a %	5.55 ± 0.56 ^a mmol/L	4.83 ± 1.51 ^a mmol/L	15.27 ± 4.65 ^a ng/g
CC(=O)OC1CC2[C@@]3(C)CC[C@H](OC(C)=O)C(C)(C)C3CC[C@@]2(C)[C@]2(C)CCC([C@](C)(CCC=O)OC(C)=O)[C@@H]12 (stereo partly drawn) [Compound 18]	0.85 ± 0.08	9.15 ± 2.85 ^a %	84 ± 16%	76 ± 14 ^a %	4.72 ± 0.91 ^a mmol/L	6.15 ± 1.28 mmol/L	16.65 ± 4.57 ^a ng/g
COC(=O)[C@H](CC(C)C)NCCC[C@](C)(OC(C)=O)C1CC[C@]2(C)[C@@H]1C(OC(C)=O)CC1[C@@]3(C)CC[C@H](OC(C)=O)C(C)(C)C3CC[C@]12C (stereo partly drawn) [Compound 19]	0.91 ± 0.07	8.34 ± 2.41 ^a %	63 ± 18 ^a %	43 ± 9 ^a %	5.13 ± 0.83 ^a mmol/L	4.62 ± 1.34 ^a mmol/L	11.23 ± 3.69 ^a ng/g
COC(=O)[C@@H](NCCC[C@](C)(OC(C)=O)C1CC[C@]2(C)[C@@H]1C(OC(C)=O)CC1[C@@]3(C)CC[C@H](OC(C)=O)C(C)(C)C3CC[C@]12C)C(C)C (stereo partly drawn) [Compound 20]	1.02 ± 0.13	9.67 ± 2.98 ^a %	79 ± 15 ^a %	63 ± 14 ^a %	4.72 ± 0.52 ^a mmol/L	6.62 ± 0.89 mmol/L	15.98 ± 5.33 ^a ng/g
COC(=O)[C@H](NCCC[C@](C)(OC(C)=O)C1CC[C@]2(C)[C@@H]1C(OC(C)=O)CC1[C@@]3(C)CC[C@H](OC(C)=O)C(C)(C)C3CC[C@]12C)[C@@H](C)O (stereo partly drawn) [Compound 21]	0.94 ± 0.17	8.28 ± 3.29 ^a %	65 ± 15 ^a %	47 ± 13 ^a %	5.82 ± 0.95 ^a mmol/L	4.31 ± 1.84 ^a mmol/L	10.76 ± 3.54 ^a ng/g
COC(=O)[C@H](CO)NCCC[C@](C)(OC(C)=O)C1CC[C@]2(C)[C@@H]1C(OC(C)=O)CC1[C@@]3(C)CC[C@H](OC(C)=O)C(C)(C)C3CC[C@]12C (stereo partly drawn) [Compound 22]	1.03 ± 0.15	10.32 ± 2.74 ^a %	76 ± 10 ^a %	65 ± 14 ^a %	4.29 ± 0.84 ^a mmol/L	6.31 ± 1.17 mmol/L	18.14 ± 6.82 ^a ng/g
COC(=O)CCC(NCCC[C@](C)(OC(C)=O)C1CC[C@]2(C)[C@@H]1C(OC(C)=O)CC1[C@@]3(C)CC[C@H](OC(C)=O)C(C)(C)C3CC[C@]12C)C(=O)OC (stereo partly drawn) [Compound 23]	1.01 ± 0.09	8.64 ± 2.46 ^a %	68 ± 18 ^a %	47 ± 19 ^a %	5.39 ± 0.61 ^a mmol/L	4.28 ± 1.46 ^a mmol/L	12.61 ± 374^a ng/g
COC(=O)CNCCC[C@](C)(OC(C)=O)C1CC[C@]2(C)[C@@H]1C(OC(C)=O)CC1[C@@]3(C)CC[C@H](OC(C)=O)C(C)(C)C3CC[C@]12C (stereo partly drawn) [Compound 24]	0.89 ± 0.14	9.54 ± 2.65 ^a %	79 ± 18 ^a %	66 ± 16 ^a %	4.68 ± 0.67 ^a mmol/L	5.65 ± 1.04 ^a mmol/L	15.47 ± 2.88 ^a ng/g
